Results taken from US9718770B2, “Substituted thioureas as heat shock protein 70 inhibitors” (Institute of Pharmacology and Toxicology Academy of …, priority 2013, dated 2017).

Columns and labels:
[1] = target: T1, Hsp70 ATPase (Homo sapiens, UniProt P0DMV8); experiment: Inhibition of Hsp70 ATPase activity (malachite green); type: biochemical; conditions: for inhibition at 200 µM / Inhibitory rate (%) on activity of Hsp70 ATPase: repeated screening carried out twice, Hsp70/Hsp40, 1 mM ATP; for inhibition at 200 µM: read-out: Inhibitory rate (%) on activity of Hsp70 ATPase; for inhibition at 200 µM / Inhibitory rate (%) on activity of Hsp70 ATPase / inhibitory rate of Hsp70 ATPase activity: 200 μM; for dose-response relationship with respect to inhibition of Hsp70 ATPase activity: first preliminary screening, 200, 100, 50, 25 and 12.5 μM with Hsp70/Hsp40, FIGS. 1, 2; for inhibitory rate of Hsp70 ATPase activity: preliminary screening, after incubation for 30 min
T1 construct: made in house; host or cells: E. coli
T1 sequence (P0DMV8 2-641 limits assumed): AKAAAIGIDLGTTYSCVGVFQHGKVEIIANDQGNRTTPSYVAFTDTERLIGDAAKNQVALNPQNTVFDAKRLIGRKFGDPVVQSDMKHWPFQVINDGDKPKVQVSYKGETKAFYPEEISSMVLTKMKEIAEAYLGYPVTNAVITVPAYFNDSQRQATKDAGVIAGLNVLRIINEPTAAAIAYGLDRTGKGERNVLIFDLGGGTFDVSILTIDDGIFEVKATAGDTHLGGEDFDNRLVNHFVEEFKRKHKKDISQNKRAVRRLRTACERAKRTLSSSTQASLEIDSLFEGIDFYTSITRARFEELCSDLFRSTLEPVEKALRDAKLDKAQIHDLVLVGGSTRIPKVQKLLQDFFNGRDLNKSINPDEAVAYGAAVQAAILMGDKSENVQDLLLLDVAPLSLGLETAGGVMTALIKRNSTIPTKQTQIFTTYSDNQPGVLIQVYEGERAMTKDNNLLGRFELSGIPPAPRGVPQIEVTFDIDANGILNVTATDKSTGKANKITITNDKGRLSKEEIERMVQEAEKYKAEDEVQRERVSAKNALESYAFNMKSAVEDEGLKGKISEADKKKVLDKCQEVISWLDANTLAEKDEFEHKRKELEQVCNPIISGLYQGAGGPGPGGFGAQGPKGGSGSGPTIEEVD
Method: (1) Protein: Humanized Hsp70, Hsp40, expressed by E. coli.
(2) Sample to be tested: 26 compound solids with different colors and states. Positive drugs AZ (CAS:1054543-47-3) and VER 155008 (CAS: 1134156-31-2) were synthesized in the laboratory.
(4) ATPase Assay buffer: • 0.017% Triton X-100; • 100 mM Tris-HCl; • 20 mM KCl; • 6 mM MgCl2, pH 7.4.
1) 13.08 μl DnaK (0.15 mg/mL, 2.14 μM), 1.96 μl DnaJ (1 mg/mL, 25 μM) were dissolved in 7.96 μl Assay Buffer (0.017% Triton X-100, 100 mM Tris-HCl, 20 mM KCl, and 6 mM MgCl2, pH 7.4), and the resultant solution was added to each well of the 96 well plate;
2) to each well of the 96 well plate, 1 μL sample to be tested (5 mM) or DMSO (solvent) was added, and vortexed with a Vortex agitator for 10 min; and then standing at 37° C. for 30 min;
3) to each well, 1 μL 25 mM ATP was added, to trigger the enzymatic reaction; (in each well, the final reaction volume was 25 μL, the final concentration of DnaK was 1.12 μM, the final concentration of DnaJ was 1.96 μM, the final concentration of DMSO was 4%, the final concentration of Triton X-100 was 0.01%, the final concentration of ATP was 1 mM, and the final concentration of sample to be tested was 200 μM), the enzymatic reaction was carried out at 37° C. for 3 h;
4) 80 μL Malachite green staining solution was then added to each well, and was vortexed gently;
5) 10 μL of 34% citrate sodium was then added immediately, and vortexed gently, to stop the ATP hydrolysis not caused by ATPase;
6) the resultant mixture was mixed thoroughly at 37° C. for 15 min, and OD620 was measured.
The inhibitory rate of Hsp70 ATPase activity is calculated in accordance with the following formula: Inhibitory rate (%)=(DMSO well OD−Experimental well OD)/(DMSO well OD−Blank well OD)×100
Criteria for preliminary screening: during preliminary screening, an example compound is regarded as effective in inhibition as long as its inhibitory rate is above 20% for Hsp70 ATPase at 200 μM.

[2] = system: MDA-MB-361; experiment: CDI of example compounds and Lapatinib (ATPlite cell survival); type: cell-based; set-up: key: CDI = AB/(A×B); <1 synergistic; conditions: compound 5 μM + Lapatinib 1 μM, 72 h; natural Lapatinib-resistant human breast cancer cells; CDI<1 synergistic
Method: (§1) Cells: (BT474 and SK-BR3 are Lapatinib-sensitive human breast cancer cell strains; BT/LapR and SK/LapR are secondary Lapatinib-resistant human breast cancer cell strains upon Lapatinib stimulation; MDA-MB-361 and MDA-MB-453 are natural Lapatinib-resistant human breast cancer cell strains. BT474, MDA-MB-361, SK-BR3 and MDA-MB-453 are from American Type Culture Collection (ATCC))
(§2) In a 100 mm culture dish full of adherent cells, digestion with 1 ml 0.25% pancreatin (GIBCO) was carried out at 37° C. for 5 min, and the reaction was stopped with 2 ml medium (containing 10% FBS, GIBCO). The cells were dispersed and collected. After cell count, the cells were diluted to a concentration of 1×10^5 cells/ml, and were seeded to a 96-well plate at 50 μl/well, 5000 cell/well, 60 wells in total, PBS instead of cells was added to the wells of the outmost circle, and the incubation was carried out at 37° C. for 24 h for adherence.
(§3) For the sample group, samples to be tested were diluted with DMSO to a final concentration of 5 μM; to control wells, the medium containing the same concentration of solvent corresponding to the compound was added, the concentrations of the compounds were identical in each well, 5 wells in parallel were set for each concentration, 25 μL/well, and 25 μL medium was added to each well (for the combination group, 25 μL Lapatinib was added to reach a final concentration of 1 μM). The incubation was carried out at 37° C. for 72 h.
(§4) To each well, 50 μL ATPlite kit substrate solution was added. The plate was under shaking for 3 min, and was then placed in dark for 10 min. The lysis supernatant was drawn at 100 μL/well, and placed in a luminescent plate. The incubated luminescent plate was placed in an iluminescence apparatus, and the iluminescent value was read.
(§5) Data Processing Cell survival rate (%)=Experimental group RLU/control group RLU×100%
(§6) Coefficient of drug interaction (CDI) is used to evaluate the interaction of two drugs, CDI is calculated in accordance with the following formula: CDI=AB/(A×B)×100%. The calculation is performed according to the number of live cells (luminescent value), if CDI<1, the two drugs have a synergistic effect; if CDI<0.7, the synergistic effect is very significant; if CDI=1, the effect of the two drugs in combination is the sum of the effects of the two drugs; if CDI>1, the two drugs have an antagonistic effect.

[3] = system: SK-BR3; experiment: as above; type: cell-based; set-up: key: CDI = AB/(A×B); <1 synergistic; conditions: compound 5 μM + Lapatinib 1 μM, 72 h; Lapatinib-sensitive human breast cancer cells; CDI<1 synergistic
Method: as §1, §2, §3, §4, §5, §6

[4] = system: MDA-MB-453; experiment: as above; type: cell-based; set-up: key: CDI = AB/(A×B); <1 synergistic; conditions: compound 5 μM + Lapatinib 1 μM, 72 h; natural Lapatinib-resistant human breast cancer cells; CDI<1 synergistic
Method: as §1, §2, §3, §4, §5, §6

[5] = system: BT474; experiment: as above; type: cell-based; set-up: key: CDI = AB/(A×B); <1 synergistic; conditions: compound 5 μM + Lapatinib 1 μM, 72 h; Lapatinib-sensitive human breast cancer cells; CDI<1 synergistic, <0.7 very significant, >1 antagonistic
Method: as §1, §2, §3, §4, §5, §6

[6] = system: SK/Lap^R1.0; experiment: as above; type: cell-based; conditions: compound 5 μM + Lapatinib 1 μM, 72 h; secondary Lapatinib-resistant human breast cancer cells; CDI<1 synergistic
Method: as §1, §2, §3, §4, §5, §6

[7] = system: BT/Lap^R1.0; experiment: as above; type: cell-based; conditions: compound 5 μM + Lapatinib 1 μM, 72 h; secondary Lapatinib-resistant human breast cancer cells; CDI<1 synergistic
Method: as §1, §2, §3, §4, §5, §6

Row | inhibition at 200 µM [1] [%] | Inhibitory rate (%) on activity of Hsp70 ATPase [1] [%] | dose-response relationship with respect to inhibition of Hsp70 ATPase activity [1] | inhibitory rate of Hsp70 ATPase activity [1] [%] | Structure (SMILES) | CDI of example compounds and Lapatinib, MDA-MB-361 [2] | CDI of example compounds and Lapatinib, SK-BR3 [3] | CDI of example compounds and Lapatinib, MDA-MB-453 [4] | CDI of example compounds and Lapatinib, BT474 [5] | CDI of example compounds and Lapatinib, SK/Lap^R1.0 [6] | CDI of example compounds and Lapatinib, BT/Lap^R1.0 [7]
1 | 10.5 | – | – | – | COc1cc(/C=C/C(=O)NC(CC(C)C)NC(=S)Nc2ccccn2)cc(OC)c1OC (stereo not shown) [Example 31, (2E)-N-[3-methyl-1-(3-pyridin-2-ylthioureido)butyl]-3-(3,4,5-trimethoxyphenyl) acrylamide] | 0.85 | 1 | 1.38 | 1.01 | 0.95 | 1.2
2 | 2.17 | – | – | – | COc1cc(/C=C/C(=O)NC(NC(=S)Nc2cccnc2)C(C)(C)C)cc(OC)c1OC (stereo not shown) [Example 27, (2E)-N-[2,2-dimethyl-1-(3-pyridin-3-ylthioureido)propyl]-3-(3,4,5-trimethoxyphenyl) acrylamide] | 0.96 | 1 | 1.32 | 0.98 | 0.97 | 1.01
3 | 4.55 | – | – | – | COc1cc(/C=C/C(=O)NC(NC(=S)Nc2ccccc2)C(C)(C)C)cc(OC)c1OC (stereo not shown) [Example 26] | 0.99 | 1.03 | 0.89 | 1.02 | 1.02 | 0.96

The next lines start with the compound.

Row | Structure (SMILES) | inhibition at 200 µM [1] [%] | Inhibitory rate (%) on activity of Hsp70 ATPase [1] [%] | dose-response relationship with respect to inhibition of Hsp70 ATPase activity [1] | inhibitory rate of Hsp70 ATPase activity [1] [%] | CDI of example compounds and Lapatinib, MDA-MB-361 [2] | CDI of example compounds and Lapatinib, SK-BR3 [3] | CDI of example compounds and Lapatinib, MDA-MB-453 [4] | CDI of example compounds and Lapatinib, BT474 [5] | CDI of example compounds and Lapatinib, SK/Lap^R1.0 [6] | CDI of example compounds and Lapatinib, BT/Lap^R1.0 [7]
4 | COc1ccc(-c2nc(-c3cc(C(F)(F)F)cc(C(F)(F)F)c3)n(Cc3ccc(C(N)=O)cc3)c2-c2ccc(OC)cc2)cc1 [AZ, reference compound] | – | 53.04 | dose-response relationship | 53.13 | – | – | – | – | – | –
5 | COc1cc(/C=C/C(=O)NC(NC(=S)Nc2ccccn2)C2CC2)cc(OC)c1OC (stereo not shown) [Example 30, (2E)-N-[cyclopropyl-(3-pyridin-2-ylthioureido)-methyl]-3-(3,4,5-trimethoxyphenyl) acrylamide] | -5.66 | – | – | – | 0.85 | 0.94 | 1.28 | 0.94 | 0.82 | 0.93
6 | N#Cc1ccc(COC[C@H]2O[C@@H](n3c(NCc4ccc(Cl)c(Cl)c4)nc4c(N)ncnc43)[C@H](O)[C@@H]2O)cc1 [VER155008, reference compound] | – | 43.03 | dose-response relationship | 38.18 | – | – | – | – | – | –
